Test results taken from patent US20140275197A1, “ALPHA-2 ADRENERGIC AGONIST FOR TREATING INTRAOCULAR PRESSURE AND OCULAR DISEASES THROUGH INTRAVITREAL AND INTRACAMERAL ROUTES” (priority 2013, published 2014).
Entries after “also recorded” stand apart in the source; their conditions may differ.

Key:
dutch belted rabbits [1] = test: Intraocular pressure lowering after bolus intracameral (IC) injection at equimolar concentration; format: in vivo, rabbit
Text: Due to the chemical similarity and the pharmacokinetics profile of brimonidine, 4-bromo-N-imidazolidin-2-ylidene-1-H-benzimidazol-5-amine and dexmedetomidine, it would be expected for these molecules to have a similar behavior following intravitreal bolus injection into the back of the eye.

dutch belted rabbits [2] = test: Intraocular pressure lowering after intravitreal (IVT) injection at equimolar concentration; format: in vivo, rabbit
[3] = in vivo
[4] = rat, in vivo, po; cited from earlier work
[5] = cited from earlier work
[6] = increasing amount of brimonidine

Brc1c(N=C2NCCN2)ccc2[nH]cnc12 [4-bromo-N-imidazolidin-2-ylidene-1-H-benzimidazol-5-amine]
potency versus brimonidine and dexmedetomidine (dutch belted rabbits [1]; administered intracamerally at equimolar concentration, normotensive rabbits): at least 50 fold | IOP decrease compared with brimonidine and dexmedetomidine (dutch belted rabbits [1]; bolus intracameral injection, equimolar concentration, rabbits): more efficacious at decreasing lop than brimonidine and dexmedetomidine; also recorded: outperforms brimonidine; also recorded: more effective than brimonidine and dexmedetomidine | IOP decrease compared with brimonidine and dexmedetomidine (dutch belted rabbits [2]): more efficacious at decreasing IOP than brimonidine and dexmedetomidine; also recorded: outperforms brimonidine; also recorded: more potent and efficacious than brimonidine | level in the systemic circulation [3]: undetectable levels | time for which the level in the aqueous humor is maintained [3]: ≥ 8 h | amount found in urine [4]: trace amounts

Nc1cc(Cl)c(N=C2NCCN2)c(Cl)c1 [apraclonidine, 2,6-dichloro-N-imidazolidin-2-ylidene-benzene-1,4-diamine]
clearance from the aqueous humor ([5]; following topical dosing): rapidly cleared

Brc1c(NC2=NCCN2)ccc2nccnc12 [brimonidine, (5-bromo-quinoxalin-6-yl)-imidazolidin-2-ylidene-amine]
clearance from the aqueous humor ([5]; following topical dosing): rapidly cleared | passage through cornea and sclera ([5]; following topical dosing): readily pass through the cornea and sclera | effect of increasing the amount on half life in the aqueous humor [5, 6]: does not improve its half life | effect of increasing the amount on systemic exposure [5, 6]: increased systemic exposure
